From BindingDB's records for doi:10.1021/acs.biochem.5b01128 (University College London, 2016) come the findings set out here.

Common to all, as to experiment: Kinase Inhibition Assay
For test [1], the target named is Dual specificity protein kinase CLK1 (Homo sapiens, UniProt P49759).
The target in test [2] is Dual specificity protein kinase CLK2 (Homo sapiens, UniProt P49760).
Test [3] has as its target Dual specificity protein kinase CLK3 (Homo sapiens, UniProt P49761).
Test [4] has as its target Dual specificity tyrosine-phosphorylation-regulated kinase 1A (Homo sapiens, UniProt Q13627).

The structures appear in SMILES notation.

The term IC50 denotes the concentration needed to halve the response being measured.

Dual specificity protein kinase CLK1, sequence (P49759 whole entry): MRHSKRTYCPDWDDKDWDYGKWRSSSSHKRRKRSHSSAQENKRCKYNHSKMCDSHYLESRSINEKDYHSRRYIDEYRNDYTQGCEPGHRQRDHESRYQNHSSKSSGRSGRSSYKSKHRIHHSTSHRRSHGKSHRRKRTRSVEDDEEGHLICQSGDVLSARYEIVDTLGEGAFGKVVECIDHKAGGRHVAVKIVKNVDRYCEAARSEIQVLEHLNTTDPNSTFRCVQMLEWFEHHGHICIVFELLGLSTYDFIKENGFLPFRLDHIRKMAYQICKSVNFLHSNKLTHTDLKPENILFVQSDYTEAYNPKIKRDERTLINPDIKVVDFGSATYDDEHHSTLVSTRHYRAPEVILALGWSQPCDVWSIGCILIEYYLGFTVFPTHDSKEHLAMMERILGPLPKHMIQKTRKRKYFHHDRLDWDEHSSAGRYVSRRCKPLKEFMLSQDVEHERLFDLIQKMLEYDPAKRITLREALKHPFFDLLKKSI
Dual specificity protein kinase CLK2, sequence (P49760 whole entry): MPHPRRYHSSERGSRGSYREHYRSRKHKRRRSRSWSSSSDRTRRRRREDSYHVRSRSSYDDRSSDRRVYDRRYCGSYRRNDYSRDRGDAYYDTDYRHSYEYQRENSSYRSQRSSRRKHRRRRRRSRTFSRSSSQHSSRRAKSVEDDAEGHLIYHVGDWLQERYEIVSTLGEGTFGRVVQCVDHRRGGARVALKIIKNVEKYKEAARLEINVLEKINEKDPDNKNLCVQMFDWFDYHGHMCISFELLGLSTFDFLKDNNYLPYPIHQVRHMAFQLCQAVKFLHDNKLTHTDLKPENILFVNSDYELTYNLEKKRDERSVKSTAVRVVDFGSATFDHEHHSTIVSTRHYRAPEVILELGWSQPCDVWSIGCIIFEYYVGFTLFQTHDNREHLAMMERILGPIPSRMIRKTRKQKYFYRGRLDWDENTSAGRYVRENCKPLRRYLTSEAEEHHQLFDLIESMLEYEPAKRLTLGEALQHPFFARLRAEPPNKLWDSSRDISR
Dual specificity protein kinase CLK3, sequence (P49761 as listed by the source): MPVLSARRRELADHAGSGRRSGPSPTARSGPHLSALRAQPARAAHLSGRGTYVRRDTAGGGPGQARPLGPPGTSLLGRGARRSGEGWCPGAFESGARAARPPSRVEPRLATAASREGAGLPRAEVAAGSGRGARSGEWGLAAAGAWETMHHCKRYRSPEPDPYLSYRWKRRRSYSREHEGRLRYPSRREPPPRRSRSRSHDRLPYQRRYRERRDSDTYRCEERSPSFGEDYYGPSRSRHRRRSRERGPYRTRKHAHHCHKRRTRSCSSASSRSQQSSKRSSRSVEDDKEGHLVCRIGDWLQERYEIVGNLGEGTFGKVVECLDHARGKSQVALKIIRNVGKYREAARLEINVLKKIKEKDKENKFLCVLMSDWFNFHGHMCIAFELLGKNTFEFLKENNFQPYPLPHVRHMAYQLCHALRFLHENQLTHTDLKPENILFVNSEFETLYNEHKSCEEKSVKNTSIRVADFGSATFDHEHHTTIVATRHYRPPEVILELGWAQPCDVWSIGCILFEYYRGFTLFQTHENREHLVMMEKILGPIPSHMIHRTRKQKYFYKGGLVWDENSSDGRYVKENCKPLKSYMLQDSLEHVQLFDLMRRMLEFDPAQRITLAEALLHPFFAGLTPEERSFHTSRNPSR

As for `O=C1N=C(NCc2cccs2)S/C1=C/c1ccc2ncccc2c1` [NR9], the 50% inhibitory concentration (IC50) in test [1] was 390 nM; in test [2] it was 553 nM; in test [3] it was greater than 3000 nM.

In the case of `CSc1nc2ccc3nc(NC(=O)c4ccco4)sc3c2s1` [5E4], the IC50 in test [1] was 277 nM; in test [2], 174 nM; in test [3] it was greater than 3000 nM; in test [4], 334 nM.

For the compound `Cc1nc2ccc3sc(NC(=O)c4ccc5ncsc5c4)nc3c2s1` [3A5], the IC50 in test [1] amounted to 51 nM; in test [2], 68 nM; in test [3], 346 nM; in test [4], 260 nM.

Take `CSc1nc2ccc3nc(NC(=O)c4ccc(S(=O)(=O)N5CCOCC5)cc4)sc3c2s1` [5F4]: the half-maximal inhibitory concentration (IC50) in test [1] was 273 nM; in test [2], 127 nM; in test [3] it was greater than 3000 nM; in test [4], 213 nM.
